Data as given in US9556201B2, “Bicyclic pyridines and analogs as sirtuin modulators” (GLAXOSMITHKLINE LLC, priority 2009, dated 2017).

Tests used:
TNF = TNF IC50 (column of Table 1; method not shown); format: cell-based
SIRT1 = target: T1, SIRT1 (Homo sapiens, UniProt Q96EB6); test: Mass spectrometry based assay to identify modulators of SIRT1 activity (deacetylation of p53-based acetylated peptide substrate); format: biochemical; conditions: for Emax: 25 min, read-out: % FOLD ACT. (percent maximum fold activation); for Emax / EC1.5: SIRT1 activation
T1 sequence (Q96EB6 1-747): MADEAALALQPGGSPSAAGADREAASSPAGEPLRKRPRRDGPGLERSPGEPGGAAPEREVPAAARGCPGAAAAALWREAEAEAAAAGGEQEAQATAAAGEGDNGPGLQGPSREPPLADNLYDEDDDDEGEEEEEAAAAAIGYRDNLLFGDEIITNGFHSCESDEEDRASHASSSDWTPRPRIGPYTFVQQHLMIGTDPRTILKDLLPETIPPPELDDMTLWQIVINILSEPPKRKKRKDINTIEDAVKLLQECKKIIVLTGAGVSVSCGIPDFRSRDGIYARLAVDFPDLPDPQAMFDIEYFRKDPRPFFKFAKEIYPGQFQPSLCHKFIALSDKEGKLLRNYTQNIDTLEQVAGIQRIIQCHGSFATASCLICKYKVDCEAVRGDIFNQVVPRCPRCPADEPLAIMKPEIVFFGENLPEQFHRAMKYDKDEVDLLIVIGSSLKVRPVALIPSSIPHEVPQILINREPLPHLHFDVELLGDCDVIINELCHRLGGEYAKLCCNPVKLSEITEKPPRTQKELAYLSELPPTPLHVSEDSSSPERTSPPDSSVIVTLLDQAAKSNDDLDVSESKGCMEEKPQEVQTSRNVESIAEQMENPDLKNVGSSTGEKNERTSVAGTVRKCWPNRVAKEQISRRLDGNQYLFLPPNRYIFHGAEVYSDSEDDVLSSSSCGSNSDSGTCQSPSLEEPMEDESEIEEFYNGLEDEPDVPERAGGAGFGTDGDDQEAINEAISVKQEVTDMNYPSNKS
Method in brief: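 Deacetylation of a modified p53 acetyl-lysine peptide ([…], 5TMR-labelled, Nle for Met) by 10 nM N-His SIRT1 with 120 μM βNAD+, pH 8, 25 min, 25 °C. Substrate and product masses measured by MS after formic acid quench; nicotinamide defines maximal inhibition.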

Row | Structure (SMILES) | IC50 (TNF) | Emax (SIRT1) | EC1.5 (SIRT1) | EC1.5 (concentration giving 1.5-fold activation) (SIRT1)
1 | O=C(Nc1cccc(N2CCOCC2)n1)N1CCOc2ccc(-c3cccc(C(F)(F)F)c3)nc21 [Compound 506, N-(6-morpholinopyridin-2-yl)-6-(3-(trifluoromethyl)phenyl)-2H-pyrido[3,2-b][1,4]oxazine-4(3H)-carboxamide] | ≥ 20 µM | > 200% | A (EC1.5<1.0 μM) | 
2 | O=C(Nc1ccnc(N2CCCC2)c1)N1CCOc2ccc(-c3cccc(C(F)(F)F)c3)nc21 [Compound 508] | ≥ 20 µM | > 200% | A (EC1.5<1.0 μM) | 
3 | O=C(Nc1cccc(CN2CCOCC2)n1)N1CCOc2ccc(-c3cccc(C(F)(F)F)c3)nc21 [Compound 510] | ≥ 20 µM | > 200% | A (EC1.5<1.0 μM) | 
4 | Cc1cc(C)nc(NC(=O)N2CCOc3ccc(-c4cccc(C(F)(F)F)c4)nc32)c1 [Compound 511] | ≥ 20 µM | > 200% | A (EC1.5<1.0 μM) | 
5 | O=C(Nc1ccnc(N2CCC2)c1)N1CCOc2ccc(-c3cccc(C(F)(F)F)c3)nc21 [Compound 513] | ≥ 20 µM | > 200% | A (EC1.5<1.0 μM) | 
6 | O=C(Nc1ccnc(N2CCC2)c1)N1CCOc2ccc(-c3cccc(F)c3)nc21 [Compound 519] | < 20 µM | > 200% | A (EC1.5<1.0 μM) | 
7 | Cc1cc(C)nc(NC(=O)N2CCN(C)c3ccc(-c4cccc(C(F)(F)F)c4)nc32)c1 [Compound 534] | ≥ 20 µM | ≤ 200% | A (EC1.5<1.0 μM) | 
8 | CC1(C)CCN(C(=O)Nc2ccncc2F)c2nc(-c3cccc(Cl)c3)ccc2C1=O [Compound 836, 2-(3-chlorophenyl)-N-(3-fluoropyridin-4-yl)-6,6-dimethyl-5-oxo-7,8-dihydro-5H-pyrido[2,3-b]azepine-9(6H)-carboxamide] |  | ≤ 200% |  | 1 to 25 µM
9 | Cc1csc(NC(=O)N2CCC(C)(C)C(=O)c3ccc(-c4cccc(Cl)c4)nc32)n1 [Compound 837] |  | ≤ 200% |  | 1 to 25 µM
10 | O=C(Nc1cncc(F)c1)N1CCCOc2ccc(-c3cccc(Cl)c3)nc21 [Compound 853] |  | > 200% |  | 1 to 25 µM
11 | COc1nccc(NC(=O)N2CCCOc3ccc(-c4cccc(Cl)c4)nc32)n1 [Compound 854] |  | > 200% |  | 1 to 25 µM
12 | Cc1cnccc1NC(=O)N1CCCOc2ccc(-c3cccc(Cl)c3)nc21 [Compound 855] |  | ≤ 200% |  | 1 to 25 µM
13 | O=C(Nc1ccncc1)N1CCCOc2ccc(-c3cccc(Cl)c3)nc21 [Compound 856] |  | > 200% |  | 1 to 25 µM
14 | Cc1cc(C)nc(NC(=O)N2CCCOc3ccc(-c4cccc(Cl)c4)nc32)c1 [Compound 857] |  | ≤ 200% |  | > 25 µM
15 | O=C(Nc1cncc(OCC(O)CO)n1)N1CCCOc2ccc(-c3cccc(Cl)c3)nc21 (stereo not shown) [Compound 858] |  | > 200% |  | < 1 µM
16 | Cc1cc(OCC(O)CO)nc(NC(=O)N2CCCOc3ccc(-c4cccc(Cl)c4)nc32)n1 (stereo not shown) [Compound 859] |  | > 200% |  | 1 to 25 µM
17 | Cc1cc(NC(=O)N2CCCOc3ccc(-c4cccc(Cl)c4)nc32)ncc1F [Compound 863] |  | ≤ 200% |  | 1 to 25 µM
18 | O=C(Nc1ncccn1)N1CCCOc2ccc(-c3cccc(Cl)c3)nc21 [Compound 865] |  | > 200% |  | 1 to 25 µM
19 | O=C(Nc1cnccn1)N1CCCOc2ccc(-c3cccc(Cl)c3)nc21 [Compound 866] |  | > 200% |  | 1 to 25 µM
20 | O=C(Nc1cccnn1)N1CCCOc2ccc(-c3cccc(Cl)c3)nc21 [Compound 867] |  | > 200% |  | 1 to 25 µM
21 | Cc1cccnc1NC(=O)N1CCCOc2ccc(-c3cccc(Cl)c3)nc21 [Compound 871] |  | ≤ 200% |  | > 25 µM
22 | COc1cc(NC(=O)N2CCCOc3ccc(-c4cccc(Cl)c4)nc32)ncn1 [Compound 872] |  | > 200% |  | < 1 µM
23 | Cc1nn(C)c(C)c1NC(=O)N1CCCOc2ccc(-c3cccc(Cl)c3)nc21 [Compound 879] |  | ≤ 200% |  | > 25 µM
24 | O=C(Nc1ccnc2cccnc12)N1CCCOc2ccc(-c3cccc(Cl)c3)nc21 [Compound 884] |  | > 200% |  | 1 to 25 µM
25 | O=C1NCc2cccc(NC(=O)N3CCCOc4ccc(-c5cccc(Cl)c5)nc43)c21 [Compound 885] |  | ≤ 200% |  | 1 to 25 µM

Further lines, results first:

Row | IC50 (TNF) | Emax (SIRT1) | EC1.5 (SIRT1) | EC1.5 (concentration giving 1.5-fold activation) (SIRT1) | Structure (SMILES)
26 | < 20 µM | > 200% | A (EC1.5<1.0 μM) |  | O=C(Nc1ccncc1)N1CCOc2ccc(-c3cccc(C(F)(F)F)c3)nc21 [Compound 501]
27 | ≥ 20 µM | > 200% | A (EC1.5<1.0 μM) |  | O=C(Nc1ccccn1)N1CCOc2ccc(-c3cccc(C(F)(F)F)c3)nc21 [Compound 502]
28 | ≥ 20 µM | > 200% | A (EC1.5<1.0 μM) |  | O=C(Nc1ccncn1)N1CCOc2ccc(-c3cccc(C(F)(F)F)c3)nc21 [Compound 503]
29 | < 20 µM | > 200% | A (EC1.5<1.0 μM) |  | CN1CCN(C(=O)Nc2ccncc2)c2nc(-c3cccc(C(F)(F)F)c3)ccc21 [Compound 531]
30 | ≥ 20 µM | ≤ 200% | B (EC1.5 1-25 μM) |  | Cc1cc(NC(=O)N2CCN(C)c3ccc(-c4cccc(C(F)(F)F)c4)nc32)cc(C)n1 [Compound 532]
31 | ≥ 20 µM | > 200% | A (EC1.5<1.0 μM) |  | Cc1csc(NC(=O)N2CCN(C)c3ccc(-c4cccc(C(F)(F)F)c4)nc32)n1 [Compound 533]
32 | ≥ 20 µM | > 200% | A (EC1.5<1.0 μM) |  | CN1CCN(C(=O)Nc2ccncn2)c2nc(-c3cccc(C(F)(F)F)c3)ccc21 [Compound 535]
33 |  | > 200% |  | 1 to 25 µM | CC1(C)CCN(C(=O)Nc2cncnc2)c2nc(-c3cccc(C(F)(F)F)c3)ccc21 [Compound 835]
34 |  | > 200% |  | < 1 µM | O=C(Nc1cccc(OCC(O)CO)c1)N1CCC(F)(F)c2ccc(-c3cccc(C(F)(F)F)c3)nc21 (stereo not shown) [Compound 841]
35 |  | ≤ 200% |  | 1 to 25 µM | CC1(C)CCN(C(=O)Nc2ncccc2F)c2nc(-c3cccc(C(F)(F)F)c3)ccc21 [Compound 842]
36 |  | ≤ 200% |  | 1 to 25 µM | CC1(C)CCN(C(=O)Nc2ccc(F)cn2)c2nc(-c3cccc(C(F)(F)F)c3)ccc21 [Compound 843]
37 |  | > 200% |  | 1 to 25 µM | Cc1cc(OCC(O)CO)nc(NC(=O)N2CCC(C)(C)c3ccc(-c4cccc(C(F)(F)F)c4)nc32)n1 (stereo not shown) [Compound 844]
38 |  | > 200% |  | < 1 µM | CC1(C)CCN(C(=O)Nc2cc(OCC(O)CO)ccn2)c2nc(-c3cccc(C(F)(F)F)c3)ccc21 (stereo not shown) [Compound 846]
39 |  | ≤ 200% |  | > 25 µM | CC1(C)CCN(C(=O)Nc2ccncc2F)c2nc(-c3cccc(C(F)(F)F)c3)ccc21 [Compound 847]
40 |  | > 200% |  | 1 to 25 µM | O=C(Nc1cncnc1)N1CCCOc2ccc(-c3cccc(Cl)c3)nc21 [Compound 852]
